Two molecules from patent US20100144758A1, “AZAINDOLE P2X3 AND P2X2/3 MODULATORS” (priority 2008, published 2010) can be followed below.

For test [1], the target named is T1, human P2X2/3 receptor (Homo sapiens, UniProt P56373+Q9UBL9).
T1 construct: expressed in transfected cells; host or cells: CHO-K1
T1 sequence (Q9UBL9 1-471): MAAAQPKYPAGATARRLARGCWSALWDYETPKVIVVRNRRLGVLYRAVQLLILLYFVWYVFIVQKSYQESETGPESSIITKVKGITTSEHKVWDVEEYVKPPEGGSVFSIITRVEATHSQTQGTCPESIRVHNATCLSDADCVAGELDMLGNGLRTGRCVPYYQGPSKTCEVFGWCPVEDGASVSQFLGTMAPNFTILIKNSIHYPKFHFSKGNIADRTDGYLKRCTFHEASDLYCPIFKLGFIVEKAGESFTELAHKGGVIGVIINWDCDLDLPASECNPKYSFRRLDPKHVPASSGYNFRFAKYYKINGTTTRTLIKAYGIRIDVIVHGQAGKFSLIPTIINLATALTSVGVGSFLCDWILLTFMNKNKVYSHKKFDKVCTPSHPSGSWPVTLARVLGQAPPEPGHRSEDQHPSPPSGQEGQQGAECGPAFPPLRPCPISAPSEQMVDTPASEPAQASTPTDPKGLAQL
T1 sequence (P56373 1-397): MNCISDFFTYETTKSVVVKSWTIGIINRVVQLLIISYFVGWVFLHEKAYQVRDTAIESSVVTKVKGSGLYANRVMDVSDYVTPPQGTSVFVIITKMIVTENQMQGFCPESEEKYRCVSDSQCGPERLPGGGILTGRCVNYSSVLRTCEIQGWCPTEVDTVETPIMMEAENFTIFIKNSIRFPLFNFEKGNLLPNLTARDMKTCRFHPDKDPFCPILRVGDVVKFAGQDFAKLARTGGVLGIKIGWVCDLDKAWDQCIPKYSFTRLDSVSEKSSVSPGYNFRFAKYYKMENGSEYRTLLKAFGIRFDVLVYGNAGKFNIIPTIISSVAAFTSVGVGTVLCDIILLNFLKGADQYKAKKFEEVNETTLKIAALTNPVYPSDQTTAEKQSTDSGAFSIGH
Kind of test: P2X2/3 FLIPR (Fluorometric Imaging Plate Reader) assay. Format: cell-based. The conditions noted are these: CHO-K1 cells transfected with human P2X2/3; agonist α,β-meATP 5 μM; Fluo-3 calcium fluorescence. On the procedure: (§1) CHO-K1 cells were transfected with cloned rat P2X3 or human P2X2/3 receptor subunits and passaged in flasks. 18-24 hours before the FLIPR experiment, cells were released from their flasks, centrifuged, and resuspended in nutrient medium at 2.5×10^5 cells/ml. The cells were aliquoted into black-walled 96-well plates at a density of 50,000 cells/well and incubated overnight in 5% CO2 at 37° C. On the day of the experiment, cells were washed in FLIPR buffer (calcium- and magnesium-free Hank's balanced salt solution, 10 mM HEPES, 2 mM CaCl2, 2.5 mM probenecid; FB). Each well received 100 μl FB and 100 μl of the fluorescent dye Fluo-3 AM [2 μM final conc.]. […]
(§2) Test compounds (dissolved in DMSO at 10 mM and serially diluted with FB) or vehicle were added to each well (25 μl of a 4× solution) and allowed to equilibrate for 20 minutes at room temperature. The plates were then placed in the FLIPR and a baseline fluorescence measurement (excitation at 488 nm and emission at 510-570 nm) was obtained for 10 seconds before a 100 μl/well agonist or vehicle addition. […] Fluorescence was measured for an additional 2 minutes at 1 second intervals after agonist addition. A final addition of ionomycin (5 μM, final concentration) was made to each well of the FLIPR test plate to establish cell viability and maximum fluorescence of dye-bound cytosolic calcium. […]

Test [2] concerns the target T2, rat P2X3 receptor (Rattus norvegicus, UniProt P49654).
T2 construct: expressed in transfected cells; host or cells: CHO-K1
T2 sequence (P49654 1-397): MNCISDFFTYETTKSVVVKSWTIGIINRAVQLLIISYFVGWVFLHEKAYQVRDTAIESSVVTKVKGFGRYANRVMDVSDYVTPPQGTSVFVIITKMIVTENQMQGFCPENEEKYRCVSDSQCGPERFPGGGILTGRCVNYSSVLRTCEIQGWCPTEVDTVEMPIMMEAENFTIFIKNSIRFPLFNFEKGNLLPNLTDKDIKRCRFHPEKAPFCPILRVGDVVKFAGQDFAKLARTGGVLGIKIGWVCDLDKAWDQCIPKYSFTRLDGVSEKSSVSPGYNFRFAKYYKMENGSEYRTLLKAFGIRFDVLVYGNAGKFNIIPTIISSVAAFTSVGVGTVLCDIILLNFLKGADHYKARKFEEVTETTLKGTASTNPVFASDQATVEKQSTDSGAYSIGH
In words: P2X3 FLIPR (Fluorometric Imaging Plate Reader) assay. The conditions noted are these: CHO-K1 cells transfected with rat P2X3; agonist α,β-meATP 1 μM; Fluo-3 calcium fluorescence. In kind it is cell-based. On the procedure:
as §1, §2

On to `Cc1ccc(-n2cc(-c3ccccc3)c3c(N[C@H](C)CO)ncnc32)cc1Cl` [Compound 12, (R)-2-[7-(3-Chloro-4-methyl-phenyl)-5-phenyl-7H-pyrrolo[2,3-d]pyrimidin-4-ylamino]-propan-1-ol], for which the IC50 in test [1] was around 501 nM. As to `Cc1cccc(-n2cc(-c3ccc(F)cc3)c3c(NC4CCOCC4)ncnc32)c1` [Compound 11, [5-(4-Fluoro-phenyl)-7-m-tolyl-7H-pyrrolo[2,3-d]pyrimidin-4-yl]-(tetrahydro-pyran-4-yl)-amine], the IC50 in test [2] was around 309 nM.

Usually IC50 stands for the concentration at which inhibition is half-maximal.
